Earlier results in US10456366B2, “Composition and methods for tissue regeneration” (Chiou Consulting, Inc., priority 2017, dated 2019).

What was measured:
dogs = conditions: food containing 8% of PG, two years
rats = conditions: water containing 10% of PG, two years

CC(O)CO (centres unmarked) [PG, propylene glycol]
adverse effects on feeding (dogs): no adverse effects
adverse effects on feeding (rats): no adverse effects
